Consider 38 molecules from patent US9663529B2, “Tricyclic pyrido-carboxamide derivatives as rock inhibitors” (BRISTOL-MYERS SQUIBB COMPANY, priority 2013, dated 2017).

What is called IC50 is the point on the concentration scale where inhibition reaches its midpoint.

The target of one assay is ROCK2 (Homo sapiens (Human), UniProt O75116). Nature of the assay: ROCK assay (Caliper LABCHIP peptide phosphorylation, 5 μM ATP). The assay is classed as biochemical. The note with it: 1.5 μM peptide substrate.
Chain of ROCK2 (O75116 whole entry, species assumed): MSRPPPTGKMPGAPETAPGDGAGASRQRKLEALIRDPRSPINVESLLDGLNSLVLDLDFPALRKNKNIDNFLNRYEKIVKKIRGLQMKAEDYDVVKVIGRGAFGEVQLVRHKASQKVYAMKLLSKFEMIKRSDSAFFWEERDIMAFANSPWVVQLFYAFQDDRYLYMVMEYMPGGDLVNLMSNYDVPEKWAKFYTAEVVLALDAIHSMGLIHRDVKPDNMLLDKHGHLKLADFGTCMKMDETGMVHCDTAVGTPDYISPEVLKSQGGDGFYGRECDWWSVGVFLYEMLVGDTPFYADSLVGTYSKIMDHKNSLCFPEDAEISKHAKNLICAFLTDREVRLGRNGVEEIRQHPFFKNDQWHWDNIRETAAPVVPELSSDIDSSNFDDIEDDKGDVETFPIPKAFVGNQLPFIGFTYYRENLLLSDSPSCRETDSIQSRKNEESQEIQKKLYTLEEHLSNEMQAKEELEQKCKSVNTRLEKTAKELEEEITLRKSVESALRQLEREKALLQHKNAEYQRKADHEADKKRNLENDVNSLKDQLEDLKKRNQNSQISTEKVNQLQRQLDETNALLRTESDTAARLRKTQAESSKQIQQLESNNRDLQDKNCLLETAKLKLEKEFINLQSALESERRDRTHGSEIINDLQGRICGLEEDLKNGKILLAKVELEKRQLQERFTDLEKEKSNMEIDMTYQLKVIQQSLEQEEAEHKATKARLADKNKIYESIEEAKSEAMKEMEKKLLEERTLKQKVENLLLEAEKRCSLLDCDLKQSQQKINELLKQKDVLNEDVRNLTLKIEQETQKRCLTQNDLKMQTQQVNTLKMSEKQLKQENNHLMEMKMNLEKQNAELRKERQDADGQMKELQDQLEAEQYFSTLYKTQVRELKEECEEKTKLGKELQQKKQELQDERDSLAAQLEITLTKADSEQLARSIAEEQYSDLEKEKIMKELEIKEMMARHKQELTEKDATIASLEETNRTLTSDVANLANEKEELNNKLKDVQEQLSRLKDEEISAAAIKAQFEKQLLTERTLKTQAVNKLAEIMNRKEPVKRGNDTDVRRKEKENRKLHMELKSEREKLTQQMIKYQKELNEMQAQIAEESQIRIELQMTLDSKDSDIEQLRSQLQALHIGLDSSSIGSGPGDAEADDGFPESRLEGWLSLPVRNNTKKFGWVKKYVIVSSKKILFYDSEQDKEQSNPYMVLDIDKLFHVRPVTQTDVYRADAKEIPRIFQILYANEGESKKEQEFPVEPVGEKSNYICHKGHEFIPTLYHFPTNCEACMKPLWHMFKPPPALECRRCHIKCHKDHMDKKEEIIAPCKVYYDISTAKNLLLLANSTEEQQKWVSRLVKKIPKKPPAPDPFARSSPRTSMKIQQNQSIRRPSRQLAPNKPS
For assay [1], the system named is rat models of hypertension. The note with it: cited from earlier work.
A further assay concerns neointimal formation. The note with it: rats, balloon injury model; cited from earlier work.
In assay [2] the test system is congestive heart failure in Dahl salt-sensitive rats. Conditions: rat, in vivo; cited from earlier work.
Assay [3] concerns IL-1 beta-induced coronary stenosis. The note with it: long term treatment; cited from earlier work.
The next assay relates to rat stroke model. Conditions: in vivo; cited from earlier work.

In turn, `O=C(Nc1ccc2c(c1)OCc1cnccc1-2)c1cccc(Cl)c1` [Example I-53, 3-chloro-N-(5H-chromeno[3,4-c]pyridin-8-yl)benzamide] yielded an IC50 at ROCK2 of 4500 nM.

Turning to `N#Cc1ccc(C(=O)Nc2ccc3c(c2)OCc2cnccc2-3)cc1` [Example I-54, N-(5H-chromeno[3,4-c]pyridin-8-yl)-4-cyanobenzamide], the IC50 against ROCK2 was found to be 2560 nM.

`COc1ccc(C(=O)Nc2ccc3c(c2)OCc2cnccc2-3)cc1` [Example I-55, N-(5H-chromeno[3,4-c]pyridin-8-yl)-4-methoxybenzamide]: at ROCK2, inhibition was half-maximal at 3250 nM (IC50).

On to `COC(=O)c1ccc(C(=O)Nc2ccc3c(c2)OCc2cnccc2-3)cc1` [Example I-56, methyl 4-(5H-chromeno[3,4-c]pyridin-8-ylcarbamoyl) benzoate], for which the IC50 on ROCK2 stood at 626 nM.

In turn, `COc1ccc(CCC(=O)Nc2ccc3c(c2)OCc2cnccc2-3)cc1` [Example I-57, N-(5H-chromeno[3,4-c]pyridin-8-yl)-3-(4-methoxyphenyl) propanamide] showed a half-inhibitory concentration (IC50) on ROCK2 of 1140 nM.

Turning to `O=C(CCc1ccc(O)cc1)Nc1ccc2c(c1)OCc1cnccc1-2` [Example I-58, N-(5H-chromeno[3,4-c]pyridin-8-yl)-3-(4-hydroxyphenyl) propanamide], the IC50 on ROCK2 amounted to 111 nM.

Consider `O=C(Cc1nnn[nH]1)Nc1ccc2c(c1)OCc1cnccc1-2` [Example I-59, N-(5H-chromeno[3,4-c]pyridin-8-yl)-2-(1H-tetrazol-5-yl) acetamide], for which inhibition against ROCK2 was half-maximal at 3820 nM (IC50).

In turn, `O=C(CCc1ccccc1)Nc1ccc2c(c1)OCc1cnccc1-2` [Example I-60, N-(5H-chromeno[3,4-c]pyridin-8-yl)-3-phenylpropanamide] gave an IC50 at ROCK2 of 40.4 nM.

For `O=C(Nc1ccc2c(c1)OCc1cnccc1-2)c1ccc2ccccc2c1` [Example I-61, N-(5H-chromeno[3,4-c]pyridin-8-yl)-2-naphthamide], 4720 nM corresponded to half-maximal inhibition against ROCK2 (IC50).

The molecule `CN(C)c1ccc(C(=O)Nc2ccc3c(c2)OCc2cnccc2-3)cc1` [Example I-63, N-(5H-chromeno[3,4-c]pyridin-8-yl)-4-(dimethylamino) benzamide] gave an IC50 on ROCK2 of 2370 nM.

Molecule `Cn1cccc1C(=O)Nc1ccc2c(c1)OCc1cnccc1-2` [Example I-64, N-(5H-chromeno[3,4-c]pyridin-8-yl)-1-methyl-1H-pyrrole-2-carboxamide] yielded an IC50 against ROCK2 of 2960 nM.

At ROCK2, `O=C(Nc1ccc2c(c1)OCc1cnccc1-2)c1ccccc1-c1ccccc1` [Example I-65, N-(5H-chromeno[3,4-c]pyridin-8-yl) biphenyl-2-carboxamide] gave an IC50 of 1220 nM.

As for `COc1cccc(C(=O)Nc2ccc3c(c2)OCc2cnccc2-3)c1` [Example I-66, N-(5H-chromeno[3,4-c]pyridin-8-yl)-3-methoxybenzamide], the IC50 at ROCK2 amounted to 2590 nM.

The molecule `O=C(CC(c1ccccc1)c1ccccc1)Nc1ccc2c(c1)OCc1cnccc1-2` [Example I-67, N-(5H-chromeno[3,4-c]pyridin-8-yl)-3,3-diphenylpropanamide] gave an IC50 against ROCK2 of 471 nM.

Molecule `O=C(Cc1ccc(Cl)c(Cl)c1)Nc1ccc2c(c1)OCc1cnccc1-2` [Example I-68, N-(5H-chromeno[3,4-c]pyridin-8-yl)-2-(3,4-dichlorophenyl) acetamide] yielded an IC50 at ROCK2 of 362 nM.

`O=C(Cc1ccc(C(F)(F)F)cc1)Nc1ccc2c(c1)OCc1cnccc1-2` [Example I-69, N-(5H-chromeno[3,4-c]pyridin-8-yl)-2-(4-(trifluoromethyl)phenyl)acetamide] gave an IC50 against ROCK2 of 1080 nM.

`O=C(Cc1ccc(-n2cnc3ccccc3c2=O)cc1)Nc1ccc2c(c1)OCc1cnccc1-2` [Example I-70, N-(5H-chromeno[3,4-c]pyridin-8-yl)-2-(4-(4-oxoquinazolin-3(4H)-yl)phenyl) acetamide]: at ROCK2, half-maximal inhibition (IC50) required 1130 nM.

For the molecule `O=C(Nc1ccc2c(c1)OCc1cnccc1-2)c1csc(-c2ccncc2)n1` [Example I-71, N-(5H-chromeno[3,4-c]pyridin-8-yl)-2-(pyridin-4-yl)thiazole-4-carboxamide], at ROCK2, the IC50 is 316 nM.

With `O=C(Nc1ccc2c(c1)OCc1cnccc1-2)C1Cc2ccccc2C1` [Example I-72, N-(5H-chromeno[3,4-c]pyridin-8-yl)-2,3-dihydro-1H-indene-2-carboxamide], it took 58.7 nM to reach half-maximal inhibition against ROCK2 (IC50).

At ROCK2, `O=C(Nc1ccc2c(c1)OCc1cnccc1-2)c1nc2ccccc2[nH]1` [Example I-73, N-(5H-chromeno[3,4-c]pyridin-8-yl)-1H-benzo[d]imidazole-2-carboxamide] displayed an IC50 of 619 nM.

For the molecule `O=C(Nc1ccc2c(c1)OCc1cnccc1-2)N1CCc2ccccc21` [Example II-1, N-(5H-Chromeno[3,4-c]pyridin-8-yl)indoline-1-carboxamide], on ROCK2, the IC50 worked out at 387 nM.

Molecule `COc1cccc(CCC(=O)Nc2ccc3c(c2)[nH]c2cnccc23)c1` [Example IV-1, 3-(3-Methoxyphenyl)-N-(9H-pyrido[3,4-b]indol-7-yl)propanamide] showed an IC50 at ROCK2 of 50.9 nM.

The molecule `O=C(Cc1cccc(F)c1)Nc1ccc2c(c1)[nH]c1cnccc12` [Example IV-3, 2-(3-Fluorophenyl)-N-(9H-pyrido[3,4-b]indol-7-yl)acetamide] displayed an IC50 against ROCK2 of 21 nM.

On ROCK2, `O=C(Cc1ccccc1)Nc1ccc2c(c1)[nH]c1cnccc12` [Example IV-4, 2-Phenyl-N-(9H-pyrido[3,4-b]indol-7-yl)acetamide] displayed an IC50 of 9.5 nM.

For the molecule `N#Cc1cccc(CC(=O)Nc2ccc3c(c2)[nH]c2cnccc23)c1` [Example IV-5, 2-(3-Cyanophenyl)-N-(9H-pyrido[3,4-b]indol-7-yl)acetamide], the IC50 at ROCK2 was found to be 383 nM.

In the case of `C[C@@H](N)[C@H]1CC[C@H](C(=O)Nc2ccncc2)CC1` [Example Y-27632, Y-27632], in assay [1] (control rats), the “blood pressure in control rats” value was “only a minor effect on blood pressure”. Also, the blood pressure result in assay [1] (spontaneously hypertensive rat, renal hypertensive rat and deoxycortisone acetate salt hypertensive rat models) is reported as “significantly decrease blood pressure”. Also, the neointimal formation result in the assay on neointimal formation is listed as “inhibited neointimal formation”. Moreover, the “ventricular hypertrophy, fibrosis and function” value in assay [2] is “improve ventricular hypertrophy, fibrosis and function”.

The molecule `O=C(Nc1ccc2c(c1)OCc1cnccc1-2)Nc1ccccc1Cl` [II-2, 1-(2-chlorophenyl)-3-(5H-chromeno[3,4-c]pyridin-8-yl) urea] yielded an IC50 at ROCK2 of 557 nM.

In turn, `O=C(NCCc1ccccc1)Nc1ccc2c(c1)OCc1cnccc1-2` [II-3, 1-(5H-chromeno[3,4-c]pyridin-8-yl)-3-phenethylurea] registered an IC50 on ROCK2 of 189 nM.

As to `O=C(Nc1cccc(Cl)c1)Nc1ccc2c(c1)OCc1cnccc1-2` [II-4, 1-(3-chlorophenyl)-3-(5H-chromeno[3,4-c]pyridin-8-yl) urea], on ROCK2, inhibition was half-maximal at 2370 nM (IC50).

The molecule `O=C(Nc1cccnc1)Nc1ccc2c(c1)OCc1cnccc1-2` [II-5, 1-(5H-chromeno[3,4-c]pyridin-8-yl)-3-(pyridin-3-yl)urea] came in with an IC50 on ROCK2 of 1420 nM.

`COc1ccc(CCNC(=O)Nc2ccc3c(c2)OCc2cnccc2-3)cc1` [II-6, 1-(5H-chromeno[3,4-c]pyridin-8-yl)-3-(4-methoxyphenethyl) urea] registered an IC50 on ROCK2 of 1610 nM.

For `O=C(NCCc1ccccc1F)Nc1ccc2c(c1)OCc1cnccc1-2` [II-7, 1-(5H-chromeno[3,4-c]pyridin-8-yl)-3-(2-fluorophenethyl)urea], the IC50 against ROCK2 stood at 233 nM.

Molecule `O=C(NCC(c1ccccc1)c1ccccc1)Nc1ccc2c(c1)OCc1cnccc1-2` [II-8, 1-(5H-chromeno[3,4-c]pyridin-8-yl)-3-(2,2-diphenylethyl)urea] came in with an IC50 on ROCK2 of 910 nM.

`O=C(NCCc1ccc(Cl)cc1)Nc1ccc2c(c1)OCc1cnccc1-2` [II-9, 1-(4-chlorophenethyl)-3-(5H-chromeno[3,4-c]pyridin-8-yl) urea] yielded an IC50 at ROCK2 of 971 nM.

Consider `O=C(NCCc1cccc(Cl)c1)Nc1ccc2c(c1)OCc1cnccc1-2` [II-10, 1-(3-chlorophenethyl)-3-(5H-chromeno[3,4-c]pyridin-8-yl) urea], for which the IC50 against ROCK2 was 248 nM.

Turning to `Cc1onc(-c2ccccc2)c1NC(=O)Nc1ccc2c(c1)OCc1cnccc1-2` [II-11, 1-(5H-chromeno[3,4-c]pyridin-8-yl)-3-(5-methyl-3-phenylisoxazol-4-yl)urea], the IC50 at ROCK2 was found to be 2240 nM.

Molecule `O=C(NCCc1ccc2c(c1)OCO2)Nc1ccc2c(c1)OCc1cnccc1-2` [II-12, 1-(2-(benzo[d][1,3]dioxol-5-yl)ethyl)-3-(5H-chromeno[3,4-c]pyridin-8-yl)urea] registered an IC50 at ROCK2 of 685 nM.

Take `O=S(=O)(c1cccc2cnccc12)N1CCCNCC1` [fasudil]: in assay [3], the coronary constrictive remodeling entry is listed as “promote a regression of coronary constrictive remodeling” and the coronary stenosis entry was “progressively reduce coronary stenosis”. Further, the “infarct size and neurologic deficit” value in the assay on rat stroke model is “reduce both the infarct size and neurologic deficit”.
